From patent US20230241126A1 (priority 2022, published 2023)

Legend:
SARS-CoV-2 = format: cell-based; settings: 1-hour contact time at 22 ± 2° C.; versus virus control titer 5.0

## CCO [Ethanol]
Vero 76 cells
  Toxicity (highest dilution of the endpoint titer where full (80-100%) cytotoxicity was observed): None
SARS-CoV-2
  LRV (log reduction value): >4.3
